Measured values taken from the supplement of paper PMC8882468.

Columns and labels:
Assay in all cases: CTG-3D luminescence at 96 h relative to day-0 seeding control (ratio to day 0); higher = more growth / less cytotoxicity; PDxO 3D drug screen, 96 h, CTG-3D normalised to day-0 seeding control.
HCI-002 = system: HCI-002 (organoid from a triple-negative breast cancer xenograft)
HCI-008 = system: HCI-008 (organoid from a HER2-enriched breast cancer xenograft)
HCI-017.E2 = system: HCI-017.E2 (organoid from an ER-positive breast cancer xenograft)
HCI-023 = system: HCI-023 (organoid from a triple-negative breast cancer xenograft)
HCI-024 = system: HCI-024 (organoid from a breast cancer xenograft)

CC(C)(C(=O)NCC(F)(F)C(F)(F)F)C(=O)N[C@@H]1C(=O)Nc2ccccc2-c2ccccc21
CTG-3D luminescence at 96 h
Details | 12.5 pM | 0.00025 µM | 0.005 µM | 0.1 µM | 1 µM | 10 µM | 100 µM | 625 fM
HCI-002, days in culture: 62 | 2.81 | 2.3 | 2.94 | 2.74 | 2.12 | 3.01 | 2.47 | 2.63
HCI-002, days in culture: 82 | 3.56 | 2.71 | 2.34 | 2.94 | 2.61 | 3.03 | 1.34 | 3.05
HCI-002, days in culture: 91 | 4.71 | 3.94 | 3.16 | 3.91 | 2.99 | 3.51 | 2.15 | 4.61
HCI-002, days in culture: 191 | 2.82 | 2.44 | 2.45 | 2.13 | 2.48 | 2.26 | 1.81 | 2.66
HCI-002, days in culture: 209 | 2.45 | 2.57 | 2.38 | 2.22 | 2.25 | 1.91 | 1.55 | 2.4
HCI-002, days in culture: 227 | 5.87 | 5.33 | 5.89 | 5.45 | 4.95 | 5.63 | 2.44 | 6.16
HCI-008, days in culture: 228 | 1.74 | 1.41 | 1 | 1.3 | 1.17 | 1.68 | 1.05 | 1.81
HCI-008, days in culture: 244 | 1.18 | 1.67 | 1.24 | 1.59 | 1.45 | 1.45 | 0.931 | 2.05
HCI-017.E2, days in culture: 85 | 2.5 | 2.8 | 2.42 | 1.44 | 1.19 | 1.24 | 1.25 | 2.29
HCI-023, days in culture: 111 | 1.36 | 1.08 | 0.961 | 0.975 | 0.945 | 1.09 | 0.672 | 1.53
HCI-023, days in culture: 128 | 1.61 | 1.47 | 1.06 | 1.27 | 1.17 | 1.65 | 0.804 | 1.64
HCI-024, days in culture: 105 | 1.79 | 1.33 | 0.962 | 1.85 | 1.67 | 2.09 | 1.22 | 1.91
HCI-024, days in culture: 122 | 2.28 | 1.94 | 1.8 | 1.67 | 1.64 | 2.55 | 1.21 | 3.41
HCI-024, days in culture: 163 | 2.14 | 2.11 | 1.38 | 2.27 | 2.12 | 2.52 | 1.71 | 2.36

HCI-017.E2
Details | CTG-3D luminescence at 96 h
12.5 pM | 1.84
0.00025 µM | 2.1
0.005 µM | 2.09
0.1 µM | 2.12
1 µM | 2.04
10 µM | 1.78
100 µM | 1.23
625 fM | 2.06
